Data from paper PMC12495326 (The Journal of Biological Chemistry, 2025).

Biological target: T1, recombinant hDHFR (human dihydrofolate reductase) (Homo sapiens, UniProt P00374)
T1 construct: gene DHFR
T1 sequence (P00374 1-187): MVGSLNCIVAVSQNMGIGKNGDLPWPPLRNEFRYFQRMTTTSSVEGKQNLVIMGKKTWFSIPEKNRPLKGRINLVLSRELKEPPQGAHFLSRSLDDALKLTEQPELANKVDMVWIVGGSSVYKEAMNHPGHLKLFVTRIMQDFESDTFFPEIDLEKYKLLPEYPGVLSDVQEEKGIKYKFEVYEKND
Assay: in vitro DHFR enzyme activity assay, dose-response
Assay type: biochemical

IC50: 141 nM
SMILES: CCc1nc(N)nc(N)c1-c1cc(Cl)cc(Cl)c1 [WCDD114]
